Measured values reported in patent US11324728B2, “Dosing regimens for the treatment of fungal infections” (Seren Pharmaceuticals Inc., priority 2017, dated 2022).
Values joined by “and” are separate entries in the source; they are usually repeats but may differ in a detail not shown here. Identical values can stand only once.

What was measured:
[1] = Safety: adverse events and laboratory tests; type: in vivo, human
Procedure: (§1) A Phase II clinical pharmacology study was conducted in subjects with onychomycosis of the toenail. The study investigated the pharmacokinetics, efficacy and safety of three different dosing regimens of fosravuconazole. […] The three treatment groups were as follows: • a.
The safety endpoints were: (1) adverse events (AEs); (2) adverse reactions; and (3) laboratory tests.

Trichophyton rubrum [2] = assay: Identification of dermatophytes by PCR method: disappearance rate; type: in vivo; conditions: Week 48
From the text: (§2) The efficacy endpoints were: (1) overall clinical efficacy; (2) changes over time in efficacy; (3) confirmation of elements of dermatophytes by direct microscopy; and (4) results of identification of dermatophytes by the polymerase chain reaction (PCR) method.

[3] = test system: onychomycosis of the toenail; assay: Phase II clinical study: overall clinical efficacy; type: in vivo, human
Procedure: as §1, §2
Overall clinical efficacy (cure rate and response rate) at Weeks 48 and 24 after the study treatment initiation for the efficacy analysis population (per protocol set, PPS) are presented in Tables 1 and 2 below. Overall clinical efficacy (cure rate and response rate) at Weeks 48 and 24 after the study treatment initiation for the full analysis set (FAS) are presented in Tables 3 and 4 below.

[4] = test system: Trichophyton mentagrophytes; assay: Overall clinical evaluation by identified species; type: in vivo; conditions: Week 48
Procedure: as §1

Trichophyton species = assay: Overall clinical evaluation by identified species; type: in vivo; conditions: 200 mg, Week 48
Procedure: as §1

Trichophyton rubrum [5] = assay: Overall clinical evaluation by identified species; type: in vivo; conditions: Week 48
Procedure: as §1

[6] = 100 mg once daily, Week 24, FAS
[7] = 100 mg once daily, Week 24, PPS
[8] = 100 mg once daily, Week 48, FAS
[9] = 100 mg once daily, Week 48, PPS
[10] = 200 mg pulse treatment, Week 24, FAS
[11] = 200 mg pulse treatment, Week 24, PPS
[12] = 200 mg pulse treatment, Week 48, FAS
[13] = 200 mg pulse treatment, Week 48, PPS
[14] = 400 mg pulse treatment, Week 24, FAS
[15] = 400 mg pulse treatment, Week 24, PPS
[16] = 400 mg pulse treatment, Week 48, FAS
[17] = 400 mg pulse treatment, Week 48, PPS

C[C@@H](c1nc(-c2ccc(C#N)cc2)cs1)[C@@](Cn1cncn1)(OCOP(=O)(O)O)c1ccc(F)cc1F [fosravuconazole, 4-[2-[(1R,2R)-2-(2,4-difluorophenyl)-1-methyl-2-[(phosphonooxy)methoxy]-3-(1H-1,2,4-triazol-1-yl)propyl]-4-thiazolyl]benzo-nitrile]
AEs resulting in discontinuation of the study treatment ([1]; 100 mg (once daily dose) group): 1 subject | AST or ALT elevated to Grade 2 after the start of study treatment ([1]; 100 mg (once daily dose) group): 2 subjects | Moderate AEs ([1]; 100 mg (once daily dose) group): 3 subjects | incidence of AEs ([1]; 100 mg (once daily dose) group): 89.7% | new AE derived from fungal infection ([1]; 100 mg (once daily dose) group): no new AE derived from fungal infection | AST or ALT elevated to Grade 2 after the start of study treatment ([1]; 200 mg (pulse treatment) group): 1 subject | Moderate AEs ([1]; 200 mg (pulse treatment) group): 12 subjects | incidence of AEs ([1]; 200 mg (pulse treatment) group): 64.5% | AEs resulting in discontinuation of the study treatment ([1]; 400 mg (pulse treatment) group): 4 subjects | AST or ALT elevated to Grade 2 after the start of study treatment ([1]; 400 mg (pulse treatment) group): 1 subject | Moderate AEs ([1]; 400 mg (pulse treatment) group): 12 subjects | incidence of AEs ([1]; 400 mg (pulse treatment) group): 85.3% | tinea pedis ([1]; 400 mg (pulse treatment) group): 2 subjects | tolerability ([1]; all dosing groups): well-tolerated | death or other serious AEs ([1]; any of the treatment groups): No death or other serious AEs occurred | AST or ALT elevated to Grade 2 after the start of study treatment ([1]; in total, all groups): 4 subjects | Disappearance rate of Trichophyton rubrum (Trichophyton rubrum [2]; 100 mg (once daily dose) group): 57.1% | Disappearance rate of Trichophyton rubrum (Trichophyton rubrum [2]; 200 mg (pulse treatment) group): 36.8% | Disappearance rate of Trichophyton rubrum (Trichophyton rubrum [2]; 400 mg (pulse treatment) group): 52.1% and 52.0% | Cure rate and 95% CI [3, 6]: 0.0 (0.0, 13.2) % | Cured [3, 6]: 0 | Failed [3, 6]: 0 | Improved [3, 6]: 6 | Markedly improved [3, 6]: 20 | Response rate and 95% CI [3, 6]: 76.9 (56.4, 91.0) % | Slightly improved [3, 6]: 0 | Cure rate and 95% CI [3, 7]: 0.0 (0.0, 13.7) % | Cured [3, 7]: 0 | Failed [3, 7]: 0 | Improved [3, 7]: 6 | Markedly improved [3, 7]: 19 | Response rate and 95% CI [3, 7]: 76.0 (54.9, 90.6) % | Slightly improved [3, 7]: 0 | Cure rate and 95% CI [3, 8]: 38.5 (20.3, 59.4) % | Cured [3, 8]: 10 | Failed [3, 8]: 0 | Improved [3, 8]: 1 | Markedly improved [3, 8]: 15 | Response rate and 95% CI [3, 8]: 96.2 (80.4, 99.9) % | Slightly improved [3, 8]: 0 | Cure rate and 95% CI [3, 9]: 40.0% and 40.0 (21.2, 61.3) % | Cured [3, 9]: 10 | Failed [3, 9]: 0 | Improved [3, 9]: 1 | Markedly improved [3, 9]: 14 | Response rate and 95% CI [3, 9]: 96.0% and 96.0 (79.7, 99.8) % | Slightly improved [3, 9]: 0 | Cure rate and 95% CI [3, 10]: 3.6 (0.1, 18.3) % | Cured [3, 10]: 1 | Failed [3, 10]: 0 | Improved [3, 10]: 10 | Markedly improved [3, 10]: 16 | Response rate and 95% CI [3, 10]: 60.7 (40.6, 78.4) % | Slightly improved [3, 10]: 1 | Cure rate and 95% CI [3, 11]: 4.0 (0.2, 20.3) % | Cured [3, 11]: 1 | Failed [3, 11]: 0 | Improved [3, 11]: 9 | Markedly improved [3, 11]: 14 | Response rate and 95% CI [3, 11]: 60.0 (38.7, 78.8) % | Slightly improved [3, 11]: 1 | Cure rate and 95% CI [3, 12]: 32.0 (15.0, 53.5) % | Cured [3, 12]: 8 | Failed [3, 12]: 0 | Improved [3, 12]: 4 | Markedly improved [3, 12]: 13 | Response rate and 95% CI [3, 12]: 84.0 (64.0, 95.4) % | Slightly improved [3, 12]: 0 | Cure rate and 95% CI [3, 13]: 27.3% and 27.3 (10.8, 50.2) % | Cured [3, 13]: 6 | Failed [3, 13]: 0 | Improved [3, 13]: 4 | Markedly improved [3, 13]: 12 | Response rate and 95% CI [3, 13]: 81.8% and 81.8 (59.8, 94.8) % | Slightly improved [3, 13]: 0 | Cure rate and 95% CI [3, 14]: 0.0 (0.0, 11.2) % | Cured [3, 14]: 0 | Failed [3, 14]: 0 | Improved [3, 14]: 11 | Markedly improved [3, 14]: 17 | Response rate and 95% CI [3, 14]: 54.8 (36.1, 72.6) % | Slightly improved [3, 14]: 3 | Cure rate and 95% CI [3, 15]: 0.0 (0.0, 11.2) % | Cured [3, 15]: 0 | Failed [3, 15]: 0 | Improved [3, 15]: 11 | Markedly improved [3, 15]: 17 | Response rate and 95% CI [3, 15]: 54.8 (36.1, 72.6) % | Slightly improved [3, 15]: 3 | Cure rate and 95% CI [3, 16]: 40.7 (22.4, 61.2) % | Cured [3, 16]: 11 | Failed [3, 16]: 0 | Improved [3, 16]: 4 | Markedly improved [3, 16]: 12 | Response rate and 95% CI [3, 16]: 85.2 (66.3, 95.8) % | Slightly improved [3, 16]: 0 | Cure rate and 95% CI [3, 17]: 40.7% and 40.7 (22.4, 61.2) % | Cured [3, 17]: 11 | Failed [3, 17]: 0 | Improved [3, 17]: 4 | Markedly improved [3, 17]: 12 | Response rate and 95% CI [3, 17]: 85.2% and 85.2 (66.3, 95.8) % | Slightly improved [3, 17]: 0 | Cure rate and 95% CI ([4]; 100 mg): 0.0 % | Cured ([4]; 100 mg): 0 | Failed ([4]; 100 mg): 0 | Improved ([4]; 100 mg): 0 | Markedly improved ([4]; 100 mg): 4 | Slightly improved ([4]; 100 mg): 0 | Cure rate and 95% CI ([4]; 200 mg): 0.0 % | Cured ([4]; 200 mg): 0 | Failed ([4]; 200 mg): 0 | Improved ([4]; 200 mg): 2 | Markedly improved ([4]; 200 mg): 0 | Slightly improved ([4]; 200 mg): 0 | Cure rate and 95% CI ([4]; 400 mg): 0.0 % | Cured ([4]; 400 mg): 0 | Failed ([4]; 400 mg): 0 | Improved ([4]; 400 mg): 0 | Markedly improved ([4]; 400 mg): 2 | Slightly improved ([4]; 400 mg): 0 | Cure rate and 95% CI (Trichophyton species): 0.0 % | Cured (Trichophyton species): 0 | Failed (Trichophyton species): 0 | Improved (Trichophyton species): 0 | Markedly improved (Trichophyton species): 1 | Slightly improved (Trichophyton species): 0 | Cure rate and 95% CI (Trichophyton rubrum [5]; 100 mg): 47.6 % | Cured (Trichophyton rubrum [5]; 100 mg): 10 | Failed (Trichophyton rubrum [5]; 100 mg): 0 | Improved (Trichophyton rubrum [5]; 100 mg): 1 | Markedly improved (Trichophyton rubrum [5]; 100 mg): 10 | Slightly improved (Trichophyton rubrum [5]; 100 mg): 0 | Cure rate and 95% CI (Trichophyton rubrum [5]; 200 mg): 31.6 % | Cured (Trichophyton rubrum [5]; 200 mg): 6 | Failed (Trichophyton rubrum [5]; 200 mg): 0 | Improved (Trichophyton rubrum [5]; 200 mg): 2 | Markedly improved (Trichophyton rubrum [5]; 200 mg): 11 | Slightly improved (Trichophyton rubrum [5]; 200 mg): 0 | Cure rate and 95% CI (Trichophyton rubrum [5]; 400 mg): 44.0 % | Cured (Trichophyton rubrum [5]; 400 mg): 11 | Failed (Trichophyton rubrum [5]; 400 mg): 0 | Improved (Trichophyton rubrum [5]; 400 mg): 4 | Markedly improved (Trichophyton rubrum [5]; 400 mg): 10 | Slightly improved (Trichophyton rubrum [5]; 400 mg): 0
